Assay results taken from US9227919B2, “Arylalkylamine compounds as calcium sensing receptor modulators” (Lupin Limited, priority 2012, dated 2016).
Where a name gives a salt, the structure may show the parent alone.

The compounds below were run against T1, Calcium Sensing Receptor (CaSR) (Homo sapiens, UniProt P41180) (assay: In-vitro assay of calcimimetics through modulation of Calcium Sensing Receptor (intracellular calcium increase, FLIPR)). Details: stably transfected HEK293 cells expressing hCaSR; Fluo4NW dye; 0.3 mM CaCl2; 8-point assay; read-out: EC50 Range.
T1 construct: expressed in transfected cells
T1 sequence (P41180 20-1078): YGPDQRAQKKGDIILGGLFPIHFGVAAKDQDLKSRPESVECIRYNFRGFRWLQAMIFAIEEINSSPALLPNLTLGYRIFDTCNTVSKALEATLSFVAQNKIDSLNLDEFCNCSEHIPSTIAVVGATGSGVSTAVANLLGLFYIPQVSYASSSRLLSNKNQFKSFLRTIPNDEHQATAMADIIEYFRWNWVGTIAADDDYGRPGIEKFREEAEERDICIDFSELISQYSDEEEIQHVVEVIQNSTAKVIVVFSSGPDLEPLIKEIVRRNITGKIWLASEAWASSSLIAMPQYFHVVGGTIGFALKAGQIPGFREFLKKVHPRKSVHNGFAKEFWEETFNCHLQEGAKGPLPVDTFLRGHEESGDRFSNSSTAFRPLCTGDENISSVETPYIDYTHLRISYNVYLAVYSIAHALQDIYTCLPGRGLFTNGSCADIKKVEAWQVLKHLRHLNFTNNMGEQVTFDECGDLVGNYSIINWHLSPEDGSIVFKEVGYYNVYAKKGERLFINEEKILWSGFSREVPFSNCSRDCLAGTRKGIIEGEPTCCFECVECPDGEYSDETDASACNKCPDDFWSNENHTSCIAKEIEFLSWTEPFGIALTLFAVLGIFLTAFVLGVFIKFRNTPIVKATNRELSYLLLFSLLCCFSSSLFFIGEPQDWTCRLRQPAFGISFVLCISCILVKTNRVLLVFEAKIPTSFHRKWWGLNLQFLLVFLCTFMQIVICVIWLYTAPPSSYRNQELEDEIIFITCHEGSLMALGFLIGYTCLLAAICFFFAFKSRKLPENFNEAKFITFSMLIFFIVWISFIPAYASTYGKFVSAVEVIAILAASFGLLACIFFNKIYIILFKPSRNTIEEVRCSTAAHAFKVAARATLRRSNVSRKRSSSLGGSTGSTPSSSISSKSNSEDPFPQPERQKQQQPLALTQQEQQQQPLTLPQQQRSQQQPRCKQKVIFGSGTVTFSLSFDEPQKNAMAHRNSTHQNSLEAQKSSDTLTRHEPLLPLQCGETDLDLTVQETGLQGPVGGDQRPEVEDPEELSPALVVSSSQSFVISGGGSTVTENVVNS
Type: cell-based
Experimental: Certain illustrative compounds within the scope of the invention are screened for CaSR activity according to the procedure given below. The screening of the compounds may also be carried by other methods and procedures known to skilled in the art.
In-vitro assay method of Calcimimetics through modulation of Calcium Sensing Receptor (CaSR):
The ability of the compounds to modulate Calcium sensing receptor is determined by measuring an increase in intracellular calcium [Ca^2+]i. Stably transfected HEK293 cells expressing hCaSR_pTriEx-3 hygro vector are developed. Cells are grown overnight on a 96-well plate to 80% confluency in Ham's F12 containing 20% FBS at 37° C., 5% CO2. Subsequently, cells are washed extensively with 20 mM HEPES buffer containing 126 mM […], 1 mM MgCl2 and 4 mM KCl to remove serum components that might interfere with the assay. Cells are loaded with calcium sensing Fluo4NW dye in HEPES base buffer containing 0.1% BSA and lmg/ml glucose for 30 minutes to measure changes in intracellular calcium. The activities of the compounds are measured in FLIPR using 0.3 mM CaCl2 in 20 mM HEPES base buffer. The effectiveness of the compound to modulate receptor activity is determined by calculating the EC50 responses for that compound in an 8-point assay and plotted using GraphPad Prism 5.
The compounds prepared were tested using the above assay procedure and the results obtained are given below.
For `Cc1cc(C2C[C@H](CN[C@H](C)c3cccc4ccccc34)Cc3ccccc32)ccc1C(=O)O` (single isomer, unassigned) [Example 13a, hydrochloride], the EC50 was 20 to 50 nM. Work on `Cc1ccc(C2C[C@H](CCCN[C@H](C)c3ccc(F)c4ccccc34)Cc3ccccc32)cc1C(=O)O` (stereo partly drawn) [Example 29, 5-((3S)-3-(3-(((R)-1-(4-fluoronaphthalen-1-yl)ethyl)amino)propyl)-1,2,3,4-tetrahydronaphthalen-1-yl)-2-methylbenzoic acid hydrochloride] yielded an EC50 of under 20 nM. `Cc1ccc(C2CC(CN[C@H](C)c3cccc4ccccc34)Cc3ccccc32)cc1C(=O)O` (single isomer, unassigned) [Example 8a, hydrochloride] was tested, and the EC50 was under 20 nM. For `Cc1ccc(C2CC(CN[C@H](C)c3cccc4ccccc34)Cc3ccccc32)cc1C(=O)O` (single isomer, unassigned) [Example 8b, hydrochloride], the EC50 was under 20 nM. `C[C@@H](NCC1Cc2ccccc2C(c2cccc(C(=O)O)c2)C1)c1cccc2ccccc12` (single isomer, unassigned) [Example 2b, hydrochloride] was tested, and the EC50 was 50 to 200 nM. With `C[C@@H](NCC1Cc2ccccc2C(c2cccc(C(=O)O)c2)C1)c1cccc2ccccc12` (single isomer, unassigned) [Example 2a, hydrochloride] the EC50 was under 20 nM. `Cc1ccc(N2CC(CCN[C@H](C)c3cccc4ccccc34)Cc3ccccc32)cc1OCC(=O)O` (single isomer, unassigned) [Example 77b, hydrochloride] was tested, and the EC50 was under 20 nM. `COc1cc([C@@H](C)NCC2Cc3ccccc3N(c3ccc(C)c(C(=O)O)c3)C2)ccc1F` (single isomer, unassigned) [Example 73a, hydrochloride] gave an EC50 of under 20 nM. In the case of `Cc1ccc(N2CC(CN[C@H](C)c3cccc4ccccc34)Cc3ccccc32)c(C)c1C(=O)O` (single isomer, unassigned) [Example 71a, hydrochloride], the EC50 is reported as under 20 nM. `Cc1cc(C(=O)O)cc(C2CC(CN[C@H](C)c3cccc4ccccc34)Cc3ccccc32)c1` (single isomer, unassigned) [Example 9b, hydrochloride] was tested, and the EC50 was 20 to 50 nM. Work on `Cc1ccc(C(=O)O)cc1N1CC(CN[C@H](C)c2cccc3ccccc23)Cc2ccccc21` (single isomer, unassigned) [Example 70b, hydrochloride] yielded an EC50 of 50 to 200 nM. `Cc1ccc(C2C[C@H](CN[C@H](C)c3ccc(F)c4ccccc34)Cc3ccccc32)cc1C(=O)O` (single isomer, unassigned) [Example 19a, hydrochloride] gave an EC50 of under 20 nM. `Cc1ccc(C(=O)O)cc1C1C[C@H](CN[C@H](C)c2cccc3ccccc23)Cc2ccccc21` (single isomer, unassigned) [Example 14a, hydrochloride] was tested, and the EC50 was 50 to 200 nM. In the case of `COc1cc([C@@H](C)NC[C@@H]2Cc3ccccc3C(c3ccc(C)c(C(=O)O)c3C)C2)ccc1F` (stereo partly drawn) [Example 17, 3-((3S)-3-((((R)-1-(4-Fluoro-3-methoxyphenyl)ethyl)amino)methyl)-1,2,3,4-tetrahydronaphthalen-1-yl)-2,6-dimethylbenzoic acid hydrochloride], the EC50 is reported as under 20 nM. Work on `Cc1ccc(C2C[C@H](CCN[C@H](C)c3ccc(F)c4ccccc34)Cc3ccccc32)cc1C(=O)O` (stereo partly drawn) [Example 25, 5-((3S)-3-(2-(((R)-1-(4-Fluoronaphthalen-1-yl)ethyl)amino)ethyl)-1,2,3,4-tetrahydronaphthalen-1-yl)-2-methylbenzoic acid hydrochloride] yielded an EC50 of 20 to 50 nM. In the case of `Cc1c(C(=O)O)cccc1N1CC(CCCN[C@H](C)c2ccc(F)c3ccccc23)Cc2ccccc21` (single isomer, unassigned) [Example 79a, hydrochloride], the EC50 is reported as under 20 nM. With `Cc1ccc(N2CC(CN[C@H](C)c3cccc4ccccc34)Cc3cc(F)ccc32)cc1C(=O)O` (single isomer, unassigned) [Example 75a, hydrochloride] the EC50 was under 20 nM. `Cc1ccc(C2CC(N[C@H](C)c3cccc4ccccc34)Cc3ccccc32)cc1C(=O)O` (stereo partly drawn) [Example 22, 2-Methyl-5-(3-(((R)-1-(naphthalen-1-yl)ethyl)amino)-1,2,3,4-tetrahydronaphthalen-1-yl)benzoic acid hydrochloride] showed an EC50 of 20 to 50 nM. `Cc1cc(C2C[C@H](CN[C@H](C)c3cccc4ccccc34)Cc3ccccc32)ccc1C(=O)O` (single isomer, unassigned) [Example 13b, hydrochloride] gave an EC50 of under 20 nM. With `Cc1ccc(C2C[C@@H](CCCN[C@H](C)c3cccc4ccccc34)Cc3ccccc32)cc1C(=O)O` (stereo partly drawn) [Example 31, 2-Methyl-5-((3R)-3-(3-(((R)-1-(naphthalen-1-yl)ethyl)amino)propyl)-1,2,3,4-tetrahydronaphthalen-1-yl)benzoic acid hydrochloride] the EC50 was under 20 nM. With `C[C@@H](NCC1Cc2ccccc2C(c2ccc(F)c(C(=O)O)c2)C1)c1cccc2ccccc12` (single isomer, unassigned) [Example 7a, hydrochloride] the EC50 was under 20 nM. For `Cc1ccc(C2CC(CN[C@H](C)c3cccc4ccccc34)Cc3ccccc32)cc1C(=O)O` (single isomer, unassigned) [Example 8c, hydrochloride], the EC50 was 50 to 200 nM. `Cc1ccc(N2C[C@@H](CN[C@H](C)c3cccc4ccccc34)Cc3ccccc32)cc1C(=O)O` [Example 69a, 2-Methyl-5-(3-((((R)-1-(naphthalen-1-yl)ethyl)amino)methyl)-3,4-dihydroquinolin-1(2H)-yl)benzoic acid hydrochloride] was tested, and the EC50 was under 20 nM. With `COc1cc([C@@H](C)NCC2Cc3ccccc3N(c3ccc(C)c(C(=O)O)c3)C2)ccc1F` (single isomer, unassigned) [Example 73b, hydrochloride] the EC50 was 50 to 200 nM. In the case of `Cc1ccc(N2CC(CCCN[C@H](C)c3cccc4ccccc34)Cc3ccccc32)cc1C(=O)O` (single isomer, unassigned) [Example 78b, hydrochloride], the EC50 is reported as under 20 nM. `C[C@@H](NCC1Cc2ccccc2C(c2ccc(F)c(C(=O)O)c2)C1)c1cccc2ccccc12` (single isomer, unassigned) [Example 7c, hydrochloride] showed an EC50 of 20 to 50 nM. `Cc1ccc(C2CC(CN[C@H](C)c3cccc4ccccc34)Cc3ccccc32)c(C)c1C(=O)O` (single isomer, unassigned) [Example 10a, hydrochloride] was tested, and the EC50 was under 20 nM. Compound `Cc1ccc(N2CC(CN[C@H](C)c3ccc(F)c4ccccc34)Cc3ccccc32)cc1C(=O)O` (single isomer, unassigned) [Example 72b, hydrochloride] has an EC50 of 20 to 50 nM. For `C[C@@H](NCC1Cc2ccccc2C(c2cccc(C(=O)O)c2)C1)c1cccc2ccccc12` (single isomer, unassigned) [Example 2c, hydrochloride], the EC50 was 20 to 50 nM. Work on `Cc1cc(C(=O)O)cc(C2CC(CN[C@H](C)c3cccc4ccccc34)Cc3ccccc32)c1` (single isomer, unassigned) [Example 9c, hydrochloride] yielded an EC50 of 50 to 200 nM. `C[C@@H](NCC1Cc2ccccc2C(c2ccc(F)c(C(=O)O)c2)C1)c1cccc2ccccc12` (single isomer, unassigned) [Example 7b, hydrochloride] was tested, and the EC50 was under 20 nM. `Cc1ccc(C(=O)O)cc1C1C[C@H](CN[C@H](C)c2cccc3ccccc23)Cc2ccccc21` (single isomer, unassigned) [Example 14b, hydrochloride] was tested, and the EC50 was under 20 nM. `Cc1ccc(C2CC(CN[C@H](C)c3cccc4ccccc34)Cc3ccccc32)cc1C(=O)O` (single isomer, unassigned) [Example 8d, hydrochloride] showed an EC50 of 20 to 50 nM. Work on `Cc1ccc(N2CC(CCN[C@H](C)c3cccc4ccccc34)Cc3ccccc32)cc1C(=O)O` (single isomer, unassigned) [Example 76b, hydrochloride] yielded an EC50 of 20 to 50 nM.
